Results as given in US20180282297A1, “POLYMORPHS OF 3-(4-AMINO-1-OXOISOINDOLIN-2-YL)PIPERIDINE-2,6-DIONE” (Shenzhen Jingtai Technology Co., Ltd., priority 2017, published 2018).
“Also recorded” adds a separate entry of the source. Where two headings read alike, the source gives them in different places. One block for each compound: values may come before it.

Experiments:
[1] = cited from earlier work
[2] = cited from earlier work; for Hygroscopicity: Wt. increase: 5~95% RH
[3] = comparison polymorphs, cited from earlier work
[4] = in acetone; comparison polymorphs; listed as B; cited from earlier work
[5] = comparison polymorphs, cited from earlier work; remark: listed apart in the source
[6] = Powder dissolution study in water; type: physicochemical; conditions: 500 mg in 500 mL water, 50 rpm, up to 300 min
Protocol: Samples (2 mL) were collected at 1 min, 2 min, 5 min, 10 min, 15 min, 20 min, 30 min, 40 min, 50 min, 60 min, 80 min, 100 min, 120 min, 150 min, 180 min, 210 min, 240 min, 270 min, and 300 min. Water (2 mL) was added each time when a sample was taken. The XRPD of the solid samples were measured.

[7] = Study of polymorphic forms of Compound A stirred in water (XRPD); type: physicochemical; conditions: 300 rpm
Protocol: 600 mg Compound A was placed in a 100 mL container. After 40 mL water was added, the container was stirred at 300 rpm at 20° C. After 12 hours, a sample was taken from the container and an XRPD was measured. […] The XRPD, TG, and DSC of Form E are shown in FIGS. 12, 13, and 14, respectively.
600 mg Compound A was placed in a 100 mL container. After 40 mL water was added, the container was stirred at 300 rpm at 25° C. After 48 hours, a sample was taken from the container and an XRPD was measured. […] A sample taken after 168 hours at 25° C. still had the same XRPD as the Form E polymorph described in Chinese Patent No. 1871003.
600 mg Compound A was placed in a 100 mL container. After 40 mL water was added, the container was stirred at 300 rpm at 15° C. After 10 hours, a sample was taken from the container and an XRPD was measured.

[8] = Stability of polymorphs in solution (suspension in solvent, XRPD of the solid); type: physicochemical; conditions: for Stability in solution: polymorphic form: ethanol, acetonitrile, tetrahydrofuran, ethyl acetate, and dioxane, 20° C. for 24 hours; for Stability in solution: polymorph converted (Cv.) to: suspension kept at 20° C. for 24 hours
Protocol: (§1) 15 mg of the polymorph obtained in Example 1 was placed in a 2 mL container. 1 mL of the each of the following solvents was added: methanol, ethanol, acetone, acetonitrile, tetrahydrofuran, nitromethane, ethyl acetate, or dioxane. The container was sonicated to dissolve Compound A. The resulting supersaturated suspension was kept at 20° C. for 24 hours. After centrifugation, the supernatant was removed, and the solid was dried at 45° C. for 2 hours. The XRPD of the solid was measured.
as §1, with “Example 4” for “Example 1”, “tetrahydrofuran,” for “tetrahydrofuran, nitromethane,”, “acetate, dioxane,” for “acetate,”, “or water.” for “or dioxane.”

[9] = Thermal stability (polymorph conversion on heating, XRPD); type: physicochemical
Protocol: In one embodiment, Form DH converts to a different polymorph at an elevated temperature (e.g., 170° C. or higher). In one embodiment, when heated to 170° C., Form DH converts to a polymorph characterized by an XRPD pattern substantially similar to that set forth in FIG. 10 (“Form F”). In one embodiment, when heated to 190° C., Form DH converts to a polymorph characterized by an XRPD pattern substantially similar to that set forth in FIG. 11 (“Form A”).
In one embodiment, Form α converts to a different polymorph at an elevated temperature (e.g., 230° C. or higher). In one embodiment, when heated to 230° C., Form α converts to a polymorph characterized by an XRPD pattern substantially similar to that set forth in FIG. 26 (“Form A”).

[10] = Hygroscopicity, dynamic vapor sorption (DVS); type: physicochemical; conditions: 25° C., 1~95% RH
Protocol: About 3 mg Form DH prepared in Example 1 was subject to dynamic vapor sorption analysis with a VTI-SA+ type dynamic vapor sorption analyzer (US TA Instruments Company). The temperature was 25° C., and the range of the relative humidity was 1-95%.
About 3 mg Form α prepared in Example 4 was subject to Dynamic Vapor Sorption analysis with a VTI-SA+ type dynamic vapor sorption analyzer (US TA Instruments Company). The temperature was 25° C., and the range of the relative humidity was 1-95%.

[11] = Crystallinity of polymorphs; type: physicochemical; conditions: polymorphs of the application
Protocol: XRPD patterns of the polymorphs obtained in the Examples were collected on a D/MAX 2500 diffractometer using the following setting: Cu Kα radiation λ 1.5418 Å, 40 kV, 200 mA, […] 2-40° at 8°/min.

[12] = Accelerated stability studies (storage, XRPD)
Protocol: 10 mg of Form DH or Form α of the present application was each put in a testing tube. The testing tubes were placed separately in sealed storage bags. The bags were stored under 40° C./75% RH or RT/P2O5. Samples of the polymorph were collected at day 1, day 3, day 5, day 7, day 14, day 21, and day 28 for XRPD measurement.

Structure (SMILES): Nc1cccc2c1CN(C1CCC(=O)NC1=O)C2=O (centres unmarked) [Form B, 3-(4-amino-1-oxoisoindolin-2-yl)piperidine-2,6-dione]
Accelerated stability ([1]; 85 days at 40° C./93% RH): Stable for 85
Accelerated stability ([1]; 85 days at RT/0% RH): Stable for 85
Hygroscopicity: Wt. increase [2]: No significant
Crystallinity ([3]; listed as B): Good
Stability in solution: polymorph converted (Cv.) to [4]: THF, to Form C
Thermal stability: polymorph converted (Cv.) to ([5]; at 175° C.): Cv. to Form A at

Structure (SMILES): Nc1cccc2c1CN(C1CCC(=O)NC1=O)C2=O (centres unmarked) [Form D, 3-(4-amino-1-oxoisoindolin-2-yl)piperidine-2,6-dione]
Crystallinity ([3]; listed as D): Good

Dissolution: crystal conversion (Cv.) during powder dissolution [6]: Form E
Polymorphic form by XRPD after stirring in water ([7]; 15° C., 34 hours): Form DH
Polymorphic form by XRPD after stirring in water ([7]; 15° C., after 10 hours): Form E
Polymorphic form by XRPD after stirring in water ([7]; 20° C., 108 hours): Form DH
Polymorphic form by XRPD after stirring in water ([7]; 20° C., after 12 hours): Form E
Polymorphic form by XRPD after stirring in water ([7]; 25° C., after 48 hours): Form E
Polymorphic form by XRPD after stirring in water ([7]; 25° C., after 168 hours): Form E
Structure (SMILES): Nc1cccc2c1CN(C1CCC(=O)NC1=O)C2=O (centres unmarked) [Compound A, 3-(4-amino-1-oxoisoindolin-2-yl)piperidine-2,6-dione]
Hygroscopicity: Wt. increase [2]: No significant
Crystallinity [3]: Good
Thermal stability ([5]; temperature not given): No Cv.

Structure (SMILES): Nc1cccc2c1CN(C1CCC(=O)NC1=O)C2=O (centres unmarked) [Form H, 3-(4-amino-1-oxoisoindolin-2-yl)piperidine-2,6-dione]
Crystallinity [3]: relatively poor

Structure (SMILES): Nc1cccc2c1CN(C1CCC(=O)NC1=O)C2=O (centres unmarked) [Form C, 3-(4-amino-1-oxoisoindolin-2-yl)piperidine-2,6-dione]
Hygroscopicity: Wt. loss ([2]; at 95% RH): by 6.03% at
Crystallinity ([3]; listed as C): Good

Stability in solution: polymorph converted (Cv.) to ([8]; in water): Form DH
Thermal stability: polymorph converted (Cv.) to ([9]; heated to 230° C.): Form A
Hygroscopicity: crystal form after DVS [10]: remained unchanged
Hygroscopicity: Wt. increase ([10]; listed as α): No significant
Hygroscopicity: crystal form after DVS ([10]; listed as α): No change
Dissolution: crystal conversion (Cv.) during powder dissolution [6]: Form E
Crystallinity [11]: Good
Accelerated stability (stable, or polymorph converted to) ([12]; 28 days at RT/P2O5): did not change
Accelerated stability (stable, or polymorph converted to) ([12]; 28 days at RT/P2O5, listed as α): Stable after
Structure (SMILES): Nc1cccc2c1CN(C1CCC(=O)NC1=O)C2=O (stereo not drawn) [Form α, 3-(4-amino-1-oxoisoindolin-2-yl)piperidine-2,6-dione]
Stability in solution: polymorphic form ([8]; in methanol, acetone): stable; also recorded: maintained its polymorphic form as Form α

Stability in solution: polymorph converted (Cv.) to ([8]; in acetone): Form C
Stability in solution: polymorph converted (Cv.) to ([8]; in acetone, listed as DH): Form C in
Thermal stability: polymorph converted (Cv.) to ([9]; heated to 170° C.): Form F
Thermal stability: polymorph converted (Cv.) to ([9]; heated to 190° C.): Form A
Hygroscopicity: Wt. increase [10]: No weight increase
Hygroscopicity: crystal form after DVS [10]: remained unchanged
Hygroscopicity: Wt. increase ([10]; listed as DH): No significant
Hygroscopicity: crystal form after DVS ([10]; listed as DH): No change
Dissolution: crystal conversion (Cv.) during powder dissolution [6]: did not change
Crystallinity [11]: Good
Accelerated stability (stable, or polymorph converted to) ([12]; 28 days at 40° C./75% RH): stable
Accelerated stability (stable, or polymorph converted to) ([12]; 28 days at 40° C./75% RH, listed as DH): Stable
Structure (SMILES): Nc1cccc2c1CN(C1CCC(=O)NC1=O)C2=O (centres unmarked) [Form DH, 3-(4-amino-1-oxoisoindolin-2-yl)piperidine-2,6-dione]
Stability in solution: polymorphic form ([8]; in water, methanol): maintained its polymorphic form as Form DH; also recorded: stable

Structure (SMILES): Nc1cccc2c1CN(C1CCC(=O)NC1=O)C2=O (centres unmarked) [Form E, 3-(4-amino-1-oxoisoindolin-2-yl)piperidine-2,6-dione]
Crystallinity ([3]; listed as E): Good
